Measurements as given in patent US4777143A, “Method of detecting carboxylic acids in a specimen” (priority 1986, dated 1988).
Read-outs that look alike come from different tables or passages of the source.

What was measured:
[1] = Water miscibility of solvents; type: physicochemical; design: key: -: Where phase separation was visible; +: otherwise; settings: 0.5 ml water + 0.5 ml solvent
Experimental: Various solvents were tested for their utility with regard to (1) water miscibility, (2) guaiac solubility and (3) color development. Water miscibility was evaluated by admixing 0.5 ml of water with 0.5 ml each solvent, and noting any phase separation. Where phase separation was visible, a "-" appears in Table 2; otherwise, a "+" appears.

[2] = Guaiac solubility in solvents / reagent solubility in water
Experimental: Color developing reagent was prepared as follows. […] Four ml of a given solvent as indicated in Table 2 were added and the guaiac was allowed to dissolve to the extent possible.
Subsequently, 48 μl of 80% cumene hydroperoxide was added to each tube (except to that containing the water-only sample) to make a complete color developing reagent (solvent, chromogen, oxidant) for testing.

Compound	WATER MISCIBILITY [1]	GUAIAC SOLUBILITY ([2]; noted visually)	GUAIAC SOLUBILITY [2]	solubility of cumene hydroperoxide in water ([2]; water)
CC(Cl)(Cl)Cl [1,1,1-trichloroethane]	-	++		
CC(C)c1ccc(CO)cc1 [4-Isopropyl-Benzyl Alcohol]	-	+++		
CC(=O)CC(C)(C)O [4-hydroxy, 4 methyl-pentanone]			+++	
CC(C)=O [Acetone]	+	+++		
OCc1ccccc1 [Benzyl Alcohol]	-		+++	
CC(C)c1ccccc1 [Cumene]	-	+		
ClCCl [Dichloromethane]	-	++		
CCO [Ethanol]	+		+++	
CCOC(C)=O [Ethyl Acetate]	-	++		
OCCO [Ethylene Glycol]	+	+++		
CC(C)O [Isopropanol]	+	+++		
CCC(C)=O [Methyl Ethyl Ketone]	+			
COC(=O)CC(C)=O [Methyl-Acetoacetate]	+	+++		
CCCCCCCCOC(C)=O [Octyl Acetate]	-		++	
Cc1ccccc1 [Toluene]	-			
CC(C)(OO)c1ccccc1 [cumene hydroperoxide, reference compound]				essentially insoluble in water
CCCCCCCO [n-Heptanol]	-	+++		
CCCCCCO [n-Hexanol]	-			
CCCCCCCC [n-Octane]	-	-		
CCCCCCCCO [n-Octanol]	-		+++	
CCCCCO [n-Pentanol]	-		+++	
Hexanes	-		-	
